# Tested on: Rhesusaffen
# Assay: In vivo test in furosemide-pretreated, anaesthetised rhesus monkeys: blood pressure, heart rate, plasma renin activity
# Details: 2 mg/kg i.d. (in 0,1 n Zitronensäure 2 mg/ml); for Änderung PRA [%]: Plasma-Renin-Aktivität
# Source text: Renin-Hemmer bewirken an salzverarmten Tieren eine Blutdrucksenkung. Da sich menschliches Renin von dem Renin anderer Spezies unterscheidet, werden zum in-vivo-Test von Renin-Hemmern Primaten, wie zum Beispiel Rhesus-Affen, herangezogen.
# Primaten-Renin und Human-Renin sind in ihrer Sequenz weitgehend homolog. Durch i.v. Injektion von Furosemid wird eine endogene Renin-Ausschüttung angeregt. Anschließend werden die Testverbindungen verabreicht und ihre Wirkung auf Blutdruck und Herzfrequenz wird gemessen.
# 6 Rhesusaffen wurden an 6 aufeinanderfolgenden Tagen mit 10 mg/kg·d Furosemid oral vorbehandelt. Am 7. Tag wurden etwa 30 Minuten vor Versuchsbeginn weitere 10 mg/kg Furosemid i.v. verabreicht. Anschließend wurde die Anästhesie mit 20 mg/kg Ketamin i.m. eingeleitet und mit 40 mg/kg Pentobarbiton i.v. fortgesetzt. Ein Seitenarm der Femoralarterie wurde freipräpariert und zur Blutdruckmessung mittels eines Blutdruck-Wandlers (P 23 ID) kanuliert. Blutproben zur Bestimmung der Plasma-Renin-Aktivität wurden über eine Braunüle in der Saphena-Vene abgenommen.
# Die Titelverbindung des Beispiels 2 zeigt folgendes Ergebnis: 2 mg/kg i.d. (in 0,1 n Zitronensäure 2 mg/ml)
smiles,measurement,setting,value
"CC(C)(C)S(=O)(=O)CC(Cc1ccccc1)C(=O)NC(Cc1c[nH]cn1)C(=O)NC(CC1CCCCC1)C(O)C(O)C(O)C(O)CO [Beispiel 2, (2(S)-Benzyl,3-t-butylsulfonyl)propionyl-His-[(D)-Manno-Pentol]]",Blutdruck-Änderung [%],t 1 min,"-0,72%"
same,Puls-Änderung [%],t 1 min,"-1,16%"
same,Blutdruck-Änderung [%],t 3 min,"-8,21%"
same,Puls-Änderung [%],t 3 min,"-1,61%"
same,Blutdruck-Änderung [%],t 5 min,"-11,53%"
same,Puls-Änderung [%],t 5 min,"-2,42%"
same,Blutdruck-Änderung [%],t 10 min,"-11,82%"
same,Puls-Änderung [%],t 10 min,"-2,51%"
same,Blutdruck-Änderung [%],t 15 min,"-12,68%"
same,Puls-Änderung [%],t 15 min,"-3,49%"
same,Blutdruck-Änderung [%],t 20 min,"-13,48%"
same,Puls-Änderung [%],t 20 min,"-1,97%"
same,Blutdruck-Änderung [%],t 30 min,"-16,43%"
same,Puls-Änderung [%],t 30 min,"-1,61%"
same,Blutdruck-Änderung [%],t 45 min,"-12,82%"
same,Puls-Änderung [%],t 45 min,"+0,09%"
same,Blutdruck-Änderung [%],t 60 min,"-13,98%"
same,Puls-Änderung [%],t 60 min,"-0,09%"
same,Puls-Änderung [%],t 75 min,"+1,16%"
same,Puls-Änderung [%],t 90 min,"+3,04%"
same,Änderung PRA [%],t 15 min,-20%
same,Änderung PRA [%],t 30 min,-62%
same,Änderung PRA [%],t 45 min,-53%
same,Änderung PRA [%],t 60 min,-58%
same,Änderung PRA [%],t 90 min,-51%
same,Änderung PRA [%],t 120 min,-47%
